Common to all, as to experiment: growth of human tumour cells (NCI), 48 h
Test [1] deals with RXF 393 renal.
Test [2] relates to K-562 leukemia.
The subject of test [3] is SK-MEL-5 melanoma.
The test system of test [4] is UACC-257 melanoma.
Test [5] concerns SN12C renal.
Test [6] has as its system SK-MEL-28 melanoma.
Test [7] concerns SNB-19 CNS.
The subject of test [8] is CAKI-1 renal.
Test [9] has as its system MCF7 breast.
Test [10] concerns SR leukemia.

Each structure is given as a SMILES string. “And” between values parts separate entries of the source, which are not always exact repeats. Identical values can stand only once.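 Test compounds were applied to cells in 96-well plates for 48 hours at 5 doses. The concentration for 50% growth inhibition is given as GI50. Definition used: TGI = concentration required for complete inhibition of growth.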

As for `O=C(NCC(=O)N1CCOC1=O)OCc1ccccc1`, the TGI in test [1], in test [2], in test [3], in test [4], in test [5] and in test [6] was above 100 µM each time. The compound further gave a TGI in test [7] above 100 µM.

With `N/C(=N\c1nc2ccccc2s1)NC(=NC1CCCCC1)NC1CCCCC1`, the GI50 in [1] was 1.46 µM; in test [3], 1.8 µM; in [4] it was 1.76 µM; in [5], 1.61 µM; in test [8], 1.53 µM; in test [6], 1.75 µM. In addition, the GI50 in test [9] is 1.46 µM; in test [7], 1.59 µM. Also, the TGI in [1] was 2.86 µM; in test [3] it was 3.21 µM; in test [4] it was 3.65 µM; in test [5], 3.11 µM; in test [8], 2.89 µM; in test [6] it was 3.24 µM. The TGI in [9] worked out at 2.83 µM; in test [7], 3.02 µM.

As to `COc1ccc2c(c1)C(=O)c1c-2c(N2CCNCC2)nc2ccccc12`, the GI50 in [2] is 2.64 µM; in test [3], 11.3 µM; in test [4] it was 2.38 µM; in test [5], 3.91 µM; in [8], 11.5 µM; in test [6], 1.85 µM. For the same compound, the GI50 in [9] was 1.28 µM; in [7], 5.44 µM. Besides, the TGI in [2] is above 100 µM; in [3], 24.7 µM; in [4], 5.11 µM; in [5], 14.9 µM; in test [8], 30.3 µM; in test [6], 3.46 µM. Also, the results for the TGI in test [9] and in [7] were 2.58 µM and 20.7 µM, respectively.

On to `Cc1cc(NC(=O)c2cnc(N3CCN(CCOCCOCCOCCOCCC(=O)N[C@H](C(=O)N4C[C@H](O)C[C@H]4C(=O)N[C@@H](C)c4ccc(-c5scnc5C)cc4)C(C)(C)C)CC3)cn2)c2ncccc2c1`, for which the GI50 in [1] was 1.73 µM; in test [2] it was 3.1 µM; in test [3] it was 2.36 µM; in test [4], 2.81 µM; in [5] it was 2.52 µM; in test [8], 9.33 µM. The GI50 in test [6] is 2.54 µM; in test [9], 3.14 µM; in [7], 3.59 µM. Moreover, the TGI was 3.71 µM in test [1]; above 100 µM in test [2]; 5.72 µM in test [3]; 7.97 µM in test [4]; 7.64 µM in test [5]; above 100 µM in [8]. Moreover, the TGI in test [6] is 6.7 µM; in test [9], above 100 µM; in test [7], 14.7 µM.

In the case of `COCCOCOC(C)(C)[C@H](CCOC(C)=O)O[Si](c1ccccc1)(c1ccccc1)C(C)(C)C`, the TGI in [1] was 45.7 µM; in test [2], 28.8 µM; in test [3], 23.7 µM; in [4], 31.1 µM; in test [5], 29.5 µM; in test [8], above 100 µM. The TGI in test [6] was above 100 µM; in [10], 14 µM; in test [7] it was above 100 µM.

Take `O=C(O)[C@@H](NS(=O)(=O)c1ccc2ccccc2c1)c1ccccc1`: the TGI in test [1], in test [2], in [4], in [5], in [8] and in test [6] was above 100 µM in each case. Besides, the TGI in test [7] is above 100 µM.

On to `Cc1ccc(NC(=O)CC2SC(N)=NC2=O)cc1C` (stereo unspecified), for which the TGI in test [2], in test [4], in test [5], in [8], in test [6] and in test [10] was above 100 µM throughout. For the same compound, in test [7], the TGI was above 100 µM.

On to `CC(=O)NNc1nc(C)c(C(=O)/C=C/c2ccc(/C=C/C(=O)c3sc(NNC(C)=O)nc3C)cc2)s1`, for which the TGI in test [1], in [2], in [4], in [5], in test [8] and in [6] was above 100 µM each time. Further, the TGI in [10] and in [7] was above 100 µM each time.

Regarding `CN1CCc2c1nc(-c1cccnc1)c1c2N(C)CC1`, the TGI in [1], in [2], in [3], in [4], in test [5] and in [8] was above 100 µM throughout. This compound also came in with a TGI in [7] above 100 µM.

Regarding `O=C(N/C(=C\c1cc(Cl)ccc1Cl)c1nc2ccc(Cl)cc2[nH]1)c1ccccc1`, the TGI came out at 29.2 µM in test [1]; 41.1 µM in [2]; 25.9 µM in [3]; 28.3 µM in test [4]; 34 µM in test [5]; 66.4 µM in test [8]. For the same compound, the TGI is 32.4 µM in [6], 25.5 µM in test [10] and 60.1 µM in test [7].

On to `NC(=O)C12CC3CC(CC(Br)(C3)C1)C2`, for which the TGI in test [3], in test [4], in [5], in test [8], in test [6] and in [10] was above 100 µM throughout. In [7], this compound had a TGI above 100 µM.

For `COC(=O)C#CCC1CCCC1C1SCCS1` (stereo unspecified), the TGI in test [1], in test [2], in [3], in test [4], in test [5] and in [8] was above 100 µM each time. In addition, the TGI is above 100 µM in [6], 84.3 µM in [10] and above 100 µM in [7].

With `CCN(CC)CCCC(C)Nc1c(Sc2cnc3cc(Cl)ccc3c2NC(C)CCCN(CC)CC)cnc2cc(Cl)ccc12` (stereo unspecified), the TGI stood at 3.22 µM in test [1]; 3.7 µM in test [2]; 3.49 µM in test [4]; 3.53 µM in test [5]; 2.86 µM in test [8]; 3.34 µM in [6].

On to `COc1cc(/C=C\c2ccncc2)cc(OC)c1OC`, for which the TGI in [1], in test [2], in test [3], in test [4], in test [5] and in test [8] was above 100 µM throughout. Moreover, the TGI in test [6] and in [7] was above 100 µM throughout.

Regarding `CCCCCCCCCCCCCP(=O)(NCC(N)=O)OCC` (stereo unspecified), the TGI was determined as 37.7 µM in [1]; 35.3 µM in [3]; 36.1 µM in test [4]; 34.3 µM in test [5]; 32.3 µM in test [6]; 34.3 µM in test [7].

As to `COC/N=C(/N)NC#N`, the TGI in test [1], in test [2], in [3], in [4], in [5] and in test [8] was above 100 µM in each case. In addition, the TGI is above 100 µM in test [6], 53.4 µM in test [10] and above 100 µM in [7].

With `C#C[C@H]1CCCCCC1O` (stereo partly specified), the TGI in test [1], in test [2], in [3], in [4], in [5] and in test [8] was above 100 µM in each case. Besides, the TGI in test [6], in [10] and in test [7] was above 100 µM in each case.

In the case of `CCN(CC)C(=S)SSC(=S)N(CC)CC`, the GI50 was 15.8 µM and 17.3 µM in [1]; 25.2 µM and 19.6 µM in test [2]; 16.6 µM and 14.6 µM in test [3]; 35.4 µM and 34.3 µM in [4]; 15 µM and 15.5 µM in [5]; 12.6 µM and 20.8 µM in test [8]. The GI50 was 15.8 µM and 26.8 µM in test [6]; 0.785 µM in test [10]; 37.4 µM and 76.4 µM in test [7]. Moreover, the TGI was 32.4 µM and 32.9 µM in test [1]; 51.5 µM and 47.3 µM in test [2]; 39.9 µM and 33.5 µM in test [3]; > 88.2 µM and 148 µM in test [4]; 29.3 µM and 31.9 µM in test [5]; 26.3 µM and 77.9 µM in [8]. In addition, the TGI was 35.4 µM and 97.5 µM in [6]; 34.4 µM in [10]; > 75.6 µM and 219 µM in [7].

Turning to `COc1ccc(-c2onc(-c3c(C)cc(C)cc3C)c2C2=NCCN2)cc1`, the TGI in [1] is above 100 µM; in test [2] it was above 100 µM; in [3] it was 36.6 µM; in test [4] it was 46.1 µM; in test [5], above 100 µM; in test [8] it was above 100 µM. The results for the TGI in test [6], in [10] and in test [7] were 48.2 µM, above 100 µM and above 100 µM, respectively.

As for `NCCC(=O)NC(Cc1cnc[nH]1)C(=O)O` (stereo unspecified), the TGI in test [2], in test [3], in [4], in [5], in test [8] and in test [6] was above 100 µM each time. The TGI in test [9] and in test [7] was above 100 µM in each case.

Take `O=C(CCc1nc(=S)[nH][nH]1)Nc1cccc(C(F)(F)F)c1`: the TGI in test [1], in test [2], in test [3], in test [4], in test [5] and in test [8] was above 100 µM in each case. Also, the TGI in test [6], in [10] and in test [7] was above 100 µM each time.

As to `N.N.N.N.N.O=S(=O)([O-])C(F)(F)F.O=S(=O)([O-])C(F)(F)F.[Os+8]`, the GI50 in test [1] is 5.37 µM; in [2] it was 7.51 µM; in test [3], 15 µM; in test [4], 22.2 µM; in test [5], 12.7 µM; in test [8], 6.61 µM. For the same compound, the GI50 in test [6] was 10.8 µM. Further, the TGI in test [1] is 18.7 µM; in test [2] it was 61.5 µM; in test [3], 34.1 µM; in test [4], above 100 µM; in test [5], 37.3 µM; in [8], 30.6 µM. In addition, the TGI in test [6] stood at 30.2 µM.

As for `COC(=O)/C(C#N)=C1\CCc2ccccc21`, the TGI in [1], in test [2], in [3], in [4], in test [5] and in test [8] was above 100 µM throughout. The TGI in test [6] and in test [7] was above 100 µM in each case.

Regarding `Nc1ccc(C(=O)N/C(=C\c2cccc([N+](=O)[O-])c2)c2nc3ccc(Cl)cc3[nH]2)cc1`, the TGI in test [1], in [2], in [3], in [5], in [8] and in [6] was above 100 µM throughout. In addition, the TGI in [10] and in test [7] was above 100 µM throughout.

With `COc1ccc(Cc2nc3ccccc3s2)cc1OC`, the TGI is 34.7 µM in test [1]; 49.6 µM in [2]; 30.1 µM in test [3]; 32.9 µM in [4]; 30.8 µM in [5]; 31.3 µM in [8]. The results for the TGI in test [6], in test [10] and in [7] were 31.9 µM, 57.1 µM and 99.9 µM, respectively.

As for `CC(=O)[CH-]C(=O)Nc1ccccc1.CC(=O)[CH-]C(=O)Nc1ccccc1.CC[O-].CC[O-].[Ti+4]`, the GI50 in [1], in test [2], in test [3], in [4], in test [5] and in [8] was above 100 µM each time. Moreover, the GI50 in test [6], in test [10] and in test [7] was above 100 µM throughout. Moreover, the TGI in [1], in test [2], in [3], in [4], in [5] and in [8] was above 100 µM in each case. The TGI in test [6], in test [10] and in test [7] was above 100 µM each time.

As to `Cc1cc(C)nc(NS(=O)(=O)c2ccc(NC(=O)c3cccn4c(=O)c5ccccc5nc34)cc2)n1`, the TGI in test [1] is 67.4 µM; in [2], above 100 µM; in [3] it was above 100 µM; in test [5], above 100 µM; in [6] it was above 100 µM; in test [10] it was above 100 µM. Also, in test [7], the TGI was above 100 µM.

Values taken from PubChem BioAssay (NCI).
